Read-outs that look alike come from different tables or passages of the source.
Columns and labels:
[1] = reported in literature; cited from earlier work
Sarcoma 180 [2] = experiment: antitumor activity: 50% inhibition of tumor enhancement, Sarcoma 180 transplanted in mice; assay type: in vivo, mouse; conditions: oral, once a day, 7 days, male ICR/JCL mice, tumor weight day 10
Method: (a) Method for determining of antitumor activity value
5×10^6 Cells of mouse-transplantable tumor Sarcoma 180 were transplanted to each male ICR/JCL-strain mouse (having a weight of 27 to 30 g) subcutaneously at the back. Each test compound dissolved or suspended in 0.1% Tween 80^(*) - 0.5% CMC solution was orally administered to various test groups each consisting of 7 mice once a day for 7 consecutive days from the next day of tumor transplanting, in an amount of 1.0 ml of solution or suspension per 100 g weight per day. As to a control group, the same Tween 80-CMC solution containing no test compound was orally administered once a day for 7 consecutive days in an amount of 1.0 ml per 100 g weight per day. (*) (A trademark for a series of surface which is a polyoxyethylene derivative of fatty acid partial ester of sorbitol anhydride, manufactured by I.C.I. U.S., Inc.)
On the tenth day from the tumor transplanting, an average tumor weight for each administration level of each test compound was determined. This weight was compared with an average tumor weight in control group, and the ratio of tumor enhancement inhibition at each administration level of each test compound compared with control group was calculated. From these calculations, the administration level of each test compound at which the ratio of tumor enhancement inhibition become 50% was obtained and the level (amount) was taken as the antitumor activity value of each compound.

[3] = toxicity value: 50% inhibition of weight increase of test animal (Sarcoma 180 tumor-transplanted mice); assay type: in vivo, mouse; conditions: oral, once a day, 7 days, male ICR/JCL mice; for TD50 at 240 h: mouse, sarcoma 180 bearing mice, read-out: Toxicity value (B) Administration amount of test compound at which weight increase of test animal is inhibited by 50% compared with that of control group
Method: (b) Method for determining toxicity value
Hitherto, toxicity values of anti-malignant tumor agents have been calculated on the bases of LD50 of test animals, in most cases. […] Therefore, in the present test, accumulated toxicity, which well represents the toxicity of anti-malignant tumor agents, was focused on and, as an indication for sensitive detection of the accumulated toxicity, inhibition of weight increase of test animal was measured. That is, when antitumor activity value was determined in the above item (a), the weight of each mouse of each test groups for each test compounds was measured daily from the day of tumor transplanting, immediately before administration.
On the day of tumor weight measurement, the average net weight increase of each mouse of each test groups for each test compounds from the day of tumor transplanting was measured. These increases were compared with the average net weight increase of control group and the ratio of net weight increase of each test groups of each test compounds to that of control group was calculated. From these calculations, there was obtained an addition amount of each test compound at which weight increase is inhibited by 50% compared with that of control group, and that amount was taken as a toxicity value of each compound.

[4] = compared with 5-FU; cited from earlier work
Sarcoma 180 [5] = experiment: calculation of therapeutic index (B)/(A), Sarcoma 180 mice; assay type: in vivo, mouse; design: key: C = toxicity value (B) / antitumor activity value (A); conditions: Table 1-c; oral, once a day, 7 days
Method: (c) Calculation of therapeutic index
By the use of the antitumor activity value (hereinafter referred to as A) and the toxicity value (hereinafter referred to as B) of each compound, which were obtained in the above items (a) and (b), respectively, therapeutic index (hereinafter referred to as C) was calculated in accordance with the following equation.
Therapeutic index (C)=^(B)(A)

[6] = relative to 5-FU; cited from earlier work
[7] = administration limited to intraarterial injection; cited from earlier work
nucleosidephosphorylase = conditions: administered in vivo; cited from earlier work
[8] = compared with 5-FU; cited from earlier work; remark: listed apart in the source
[9] = in vivo; cited from earlier work

## O=c1[nH]c(=O)n([C@H]2C[C@H](O)[C@@H](CO)O2)cc1C(F)(F)F [F3 TdR, 2'-Deoxy-5-trifluoromethyl uridine, reference compound]
[1]
  antitumor activity: has an antitumor activity
Sarcoma 180 [2]; Table 1-a
  Antitumor activity value (A) Administration amount of test compound at which tumor enhancement is inhibited by 50% compared with that of control group: 68 mg/kg/day
Sarcoma 180 [2]; Table 1-b
  Antitumor activity value (A) Administration amount of test compound at which tumor enhancement is inhibited by 50% compared with that of control group: 58 mg/kg/day
[3]; Table 1-a, 14400 min
  Toxicity value (B) Administration amount of test compound at which weight increase of test animal is inhibited by 50% compared with that of control group: 49 mg/kg/day
[3]; Table 1-b
  TD50 at 240 h: 40 mg/kg

## O=c1[nH]c(=O)n([C@H]2C[C@H](O)[C@@H](CO)O2)cc1F [FudR, 2'-deoxy-5-fluorouridine]
[4]
  conversion in vivo into active form: more easily than 5-FU
Sarcoma 180 [2]; Table 1-c
  Antitumor activity value (A) Administration amount of test compound at which tumor enhancement is inhibited by 50% compared with that of control group: 93 mg/kg/day
[3]; Table 1-c
  TD50 at 240 h: 71 mg/kg
Sarcoma 180 [5]
  Therapeutic index (C) = (B)/(A): 0.76
[6]
  carcinostatic activity in vitro: about 100 times that of 5-fluorouracil
[7]
  toxicity as a medicine: very toxic
nucleosidephosphorylase
  decomposition into 5-FU by nucleosidephosphorylase: easily decomposed into 5-FU by nucleosidephosphorylase
[8]
  carcinostatic effect: inferior to 5-FU in carcinostatic effect
[9]
  excretion: excreted very quickly
  prolonged action in blood: poor prolonged action in blood
